# Data from article PMC2362735, “New semisynthetic vinca alkaloids: chemical, biochemical and cellular studies” (British Journal of Cancer, 1999).
# Key:
# [1] = tested on: Mouse Ehrlich ascites tumour cells; assay: In vivo anti-tumour effect on Ehrlich ascites carcinoma, single i.p. dose 4 days after transplantation
# Description: (§1) The numerous antimitotic drugs already developed and therapeu- tically used for a large number of pathologies belong to different classes based on their chemical structure and other distinctive features. Antimitotic drugs usually target the tubulin/microtubule network of the cytoskeleton that is formed by assembly of cyto- plasmic tubulin dimers. The stability of the different microtubular structures varies considerably; some of their functions depend on their lability. The lability is augmented by the extreme sensitivity to various drugs. Several synthetic and natural compounds interact specifically with tubulin and/or microtubule, fundamentally destroying its dynamic character and leading to cell death. […] Because of their extensive clinical use, it is important to synthesize additional agents having at least the same biological activity. […] Nevertheless, it is unclear yet how the anti-calmodulin activity of these drugs is related to their desired and undesired pharmacological effects. […] The synthesis of the KAR derivatives are presented. […] Taxol, GTP and trifluoperazine were purchased from Sigma. All organic reagents for synthesis of the new compounds were obtained from Aldrich and were of the highest grade. All other chemicals were reagent grade commercial preparations. […] Tubulin was stored in 1 M sucrose, 10 mM sodium phosphate buffer, 0.5 mM magnesium chloride and 0.1 mM GTP, pH 7.0, at -80C and dialysed against the appropriate buffer before use. […] PFK, aldolase and glycerol-3-phosphate dehydrogenase- triosephosphate isomerase purified from rabbit skeletal muscle were purchased in ammonium sulphate suspensions from Sigma or Boehringer. The enzyme suspensions were centrifuged at 10 000g for 5 min. The pellets were suspended in the appropriate buffer, then the enzymes were gel filtered or dialysed in the same buffer to remove ammonium sulphate. […] (Figure 1B; R1 , CH3; R2 , CH2 CH2 Cl). […] After 2 h incubation at room temperature, 200 ml dried toluene was added to the reaction mixture. […] The mixture was stirred for 30 min. After separation of the organic phase, it was washed with water (3 x 30 ml) and dried with potassium sulphate and evaporated on a water bath of 35-40C at 20-27 hPa. The resulting material was chromatographed on silica gel (500 g, bead size of 0.040- 0.063 mm) column (30 mm x 500 mm) using ethyl acetate/ethanol (9:1) mixture as eluent. […] The mixture was kept for 4 h at room temperature and then evaporated on a water bath at 40C under a vacuum of 80 hPa to a final volume of 5-6 ml. […] (Figure 1B, R1 , CHO; R2 , CH2 CH2 Cl). […] Synthesis of KAR-4 [3-allyl-2,4-dioxo-3,5-spiro-oxazolidino- 4-deacetoxy-vinblastine] (Figure 1B; R1 , CH3; R2 , CH2 CH=CH2 ). […] NMR measurements were carried out on a Varian Unity plus-500 instrument (500 MHz for 1H and 125 MHz for 13C) in DMSO. Chemical shifts were determined relative to dTMS = 0.00 p.p.m. 1H and 13C signal assignments were verified by a concerted use of two-dimensional 1H-1H and 1H-13C shift correlation methods (DQFCOSY, HSQC, HMBC) and NOESY experiments. The gradient-enhanced DQFCOSY, HSQC, HMBC and NOESY experiments were recorded by using the standard spectrometer software package. A mixing time of tmix = 0.5 s was used for the NOESY experiments.
# [2] = tested on: Mouse leukaemia P388 cells; parameters: method as in Orosz et al (1997a); settings: P388, single doses i.p.; data published also in ref Orosz et al (1997a); cited from earlier work
# [3] = tested on: Mouse leukaemia P388 cells; assay: In vivo anti-tumour effect on P388 mouse leukaemia, single i.p. dose; settings: P388 mice, single dose i.p.
# Description: as §1
# [4] = tested on: mouse leukaemia P388; parameters: method as in Orosz et al, 1997a; settings: ref Orosz et al, 1997a, cited from earlier work
# [5] = tested on: tubulin; assay: Taxol-induced tubulin polymerization, turbidity at 350 nm; type: biochemical, calf; settings: taxol-induced assembly, MES buffer pH 6.8, 37C; average of three independent measurements; read-out: Anti-tubulin effect, turbidity at 350 nm, IC50
# Description: as §1
# [6] = tested on: Human neuroblastoma cell line (SH-SY5Y); assay: Microculture tetrazolium assay (MTA), cytotoxicity; settings: read-out: Cytotoxicity MTA IC50, 4-day treatment, MTT
# Description: as §1
# [7] = Table 2A, 40 mg kg-1 single dose i.p.
# [8] = Table 2B, 20 mg kg-1 single dose i.p.
# [9] = Table 2B, 40 mg kg-1 single dose i.p.
# [10] = Table 2B, 60 mg kg-1 single dose i.p.
# [11] = Table 2B, 80 mg kg-1 single dose i.p.
smiles,measurement,setting,value
"CC[C@]1(O)C[C@@H]2CN(CCc3c([nH]c4ccccc34)[C@@](C(=O)OC)(c3cc4c(cc3OC)N(C)[C@@H]3[C@]45CCN4CC=C[C@@](CC)(C[C@@]36OC(=O)N(CCCl)C6=O)[C@H]45)C2)C1 [KAR-2, 3′-(β-chloroethyl)-2′,4′-dioxo-3,5′-spiro-oxazolidino-4-deacetoxy-vinblastine]",mortality of treated animals,"[1]; 80 mg kg-1 single dose i.p., three mice per group",The animals were dying in the same day of the sacrifice
same,Cells ml-1 (per cent of control),[1]; [7],56 per cent of control
same,Total cells (per cent of control),[1]; [7],24 per cent of control
same,Volume of tumour per mouse,"[1]; Table 2A, 40 mg kg-1 single dose i.p., sacrifice 8 days after implantation, control 5.33 ml",2.33 mL
same,Cells ml-1 (per cent of control),[1]; [8],63 per cent of control
same,Total cells (per cent of control),[1]; [8],46 per cent of control
same,Volume of tumour per mouse,"[1]; Table 2B, 20 mg kg-1 single dose i.p., control 2.67 ml",1.97 mL
same,Cells ml-1 (per cent of control),[1]; [9],60 per cent of control
same,Total cells (per cent of control),[1]; [9],24 per cent of control
same,Volume of tumour per mouse,"[1]; Table 2B, 40 mg kg-1 single dose i.p., control 2.67 ml",1.17 mL
same,Cells ml-1 (per cent of control),[1]; [10],46 per cent of control
same,Total cells (per cent of control),[1]; [10],29 per cent of control
same,Volume of tumour per mouse,"[1]; Table 2B, 60 mg kg-1 single dose i.p., control 2.67 ml",1.70 mL
same,Cells ml-1 (per cent of control),[1]; [11],211 per cent of control
same,Total cells (per cent of control),[1]; [11],36 per cent of control
same,Volume of tumour per mouse,"[1]; Table 2B, 80 mg kg-1 single dose i.p., control 2.67 ml",0.45 mL
same,Dose (mg kg-1) giving the maximal effect,[2],60 mg/kg
same,Maximal effect T/C (%),[2],207%
same,maximal tolerated dose,[3],80 mg/kg
same,T/C,"[4]; P388, 1 mg kg-1, eightfold treatment",174%
same,neurotoxic side-effects (e.g. paralysis of bladder or lower extremities),[4]; P388 in vivo tests,did not induce neurotoxic side-effects
same,IC50,[5],200 nM
same,IC50,[6],310 nM
